Results as given in patent publication US10544143B2, “4-azaindole compounds” (BRISTOL-MYERS SQUIBB COMPANY, priority 2017, dated 2020).

How the values were obtained:
TLR7 = TLR7 (Mus musculus (Mouse), UniProt P58681); assay: In vivo mouse TLR7 PD model (gardiquimod challenge, plasma IL-6 and IFN-alpha); settings: C57BL/6 mice, plasma 90 min after gardiquimod i.p., vs vehicle
Description: In Vivo Mouse TLR7 PD Model:
Adult male C57BL/6 mice were used for the experiments. Mice (7 to 10 per group) were randomized into different treatment groups based on body weight. Mice from the respective treatment groups were administered orally with vehicle or test compound. Thirty min after the oral administration of vehicle or test compound, mice were challenged with intraperitoneal injection of gardiquimod for TLR7 PD model. Ninety minutes after gardiquimod injection, mice were bled under isoflurane anaesthesia and plasma IL-6 and IFN-alpha levels were estimated by using commercially available ELISA kit (BD Biosciences, PBL Life Sciences). At the end of experiment, mean cytokine data was plotted and one way ANOVA with Dunnett's test was performed to calculate the significance of test compound treated group vs. vehicle control group. Percent inhibition of cytokine induction was calculated for test compound treated group vs vehicle control group.

MRL/lpr mice = assay: MRL/lpr model of SLE; format: in vivo, mouse; settings: vs vehicle; for IL-10, percent reduction in disease severity / IL-12p40, percent reduction in disease severity: plasma
Description: Male MRL/lpr mice of 12-14 weeks age were screened and randomized based on the titres of anti-dsDNA antibodies and urinary NGAL (Neutrophil Gelatinase Associated Lipocalin). Mice were treated orally, once daily for 8 weeks with vehicle or test compound. The effect of test compound on disease severity was assessed by measuring end points including proteinuria, urinary-NGAL, urinary TIMP1, blood urea nitrogen (BUN), anti-dsDNA Ab, anti-smRNP Ab titer, and plasma levels of IL10 and IL12p40. At the end of experiment, all mice were euthanized by CO2 asphyxiation and kidney samples were subjected for histology. To calculate the significance of test compound treated group vs. vehicle control group, one way ANOVA with Dunnett's test was performed. Percent reduction in disease severity was calculated for each parameter, for test compound treated group vs vehicle control group.

human TLR9 = human TLR9 (Homo sapiens (Human), UniProt Q9NR96); assay: TLR9 inhibition reporter assay (HEK-Blue SEAP); settings: read-out: TLR9 IC50; HEK-Blue cells overexpressing human TLR9, SEAP reporter, ODN2006 5 nM;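 note: SEAP driven by an IFN-β minimal promoter with NF-κB and AP-1 sites, read after 22 h, compounds dosed 0.05 nM–50 µM, inhibition scaled between agonist plus DMSO and reference-inhibitor wells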
Sequence of human TLR9 (Q9NR96 26-1032): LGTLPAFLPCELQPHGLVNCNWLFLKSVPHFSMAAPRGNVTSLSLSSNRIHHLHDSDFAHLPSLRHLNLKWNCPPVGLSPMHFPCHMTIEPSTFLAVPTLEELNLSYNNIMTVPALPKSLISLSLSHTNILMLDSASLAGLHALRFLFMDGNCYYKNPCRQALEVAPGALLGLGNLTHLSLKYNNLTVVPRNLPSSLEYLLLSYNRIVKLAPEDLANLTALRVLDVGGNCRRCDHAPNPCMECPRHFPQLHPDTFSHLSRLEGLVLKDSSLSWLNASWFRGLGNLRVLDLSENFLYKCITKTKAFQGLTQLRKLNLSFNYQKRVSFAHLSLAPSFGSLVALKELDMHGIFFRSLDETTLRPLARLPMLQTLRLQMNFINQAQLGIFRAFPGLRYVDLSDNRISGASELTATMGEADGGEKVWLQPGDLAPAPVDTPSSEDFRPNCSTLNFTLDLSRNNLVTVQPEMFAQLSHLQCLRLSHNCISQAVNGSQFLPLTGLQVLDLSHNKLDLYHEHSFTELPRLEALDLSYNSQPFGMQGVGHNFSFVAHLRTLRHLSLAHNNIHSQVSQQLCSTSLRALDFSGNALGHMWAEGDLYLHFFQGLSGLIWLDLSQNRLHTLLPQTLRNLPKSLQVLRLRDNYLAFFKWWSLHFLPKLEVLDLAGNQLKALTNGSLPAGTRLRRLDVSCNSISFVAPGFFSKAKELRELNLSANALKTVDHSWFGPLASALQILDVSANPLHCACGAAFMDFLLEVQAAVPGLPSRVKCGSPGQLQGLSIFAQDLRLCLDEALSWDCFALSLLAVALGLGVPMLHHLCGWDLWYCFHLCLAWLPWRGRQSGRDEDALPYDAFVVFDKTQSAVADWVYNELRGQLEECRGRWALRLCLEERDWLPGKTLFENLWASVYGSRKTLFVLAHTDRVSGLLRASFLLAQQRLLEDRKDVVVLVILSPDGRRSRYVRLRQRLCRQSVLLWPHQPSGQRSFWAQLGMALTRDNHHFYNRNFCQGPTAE

human TLR8 = human TLR8 (Homo sapiens (Human), UniProt Q9NR97); assay: TLR8 inhibition reporter assay (HEK-Blue SEAP); settings: read-out: TLR8 IC50; HEK-Blue cells overexpressing human TLR8, SEAP reporter, R848 15.9 μM;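 note: SEAP driven by IFN-β minimal promoter carrying NF-κB and AP-1 sites, compounds dosed 0.05 nM to 50 µM for 22 h, inhibition scaled between agonist-plus-DMSO and reference-inhibitor wells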
Sequence of human TLR8 (Q9NR97 27-1041): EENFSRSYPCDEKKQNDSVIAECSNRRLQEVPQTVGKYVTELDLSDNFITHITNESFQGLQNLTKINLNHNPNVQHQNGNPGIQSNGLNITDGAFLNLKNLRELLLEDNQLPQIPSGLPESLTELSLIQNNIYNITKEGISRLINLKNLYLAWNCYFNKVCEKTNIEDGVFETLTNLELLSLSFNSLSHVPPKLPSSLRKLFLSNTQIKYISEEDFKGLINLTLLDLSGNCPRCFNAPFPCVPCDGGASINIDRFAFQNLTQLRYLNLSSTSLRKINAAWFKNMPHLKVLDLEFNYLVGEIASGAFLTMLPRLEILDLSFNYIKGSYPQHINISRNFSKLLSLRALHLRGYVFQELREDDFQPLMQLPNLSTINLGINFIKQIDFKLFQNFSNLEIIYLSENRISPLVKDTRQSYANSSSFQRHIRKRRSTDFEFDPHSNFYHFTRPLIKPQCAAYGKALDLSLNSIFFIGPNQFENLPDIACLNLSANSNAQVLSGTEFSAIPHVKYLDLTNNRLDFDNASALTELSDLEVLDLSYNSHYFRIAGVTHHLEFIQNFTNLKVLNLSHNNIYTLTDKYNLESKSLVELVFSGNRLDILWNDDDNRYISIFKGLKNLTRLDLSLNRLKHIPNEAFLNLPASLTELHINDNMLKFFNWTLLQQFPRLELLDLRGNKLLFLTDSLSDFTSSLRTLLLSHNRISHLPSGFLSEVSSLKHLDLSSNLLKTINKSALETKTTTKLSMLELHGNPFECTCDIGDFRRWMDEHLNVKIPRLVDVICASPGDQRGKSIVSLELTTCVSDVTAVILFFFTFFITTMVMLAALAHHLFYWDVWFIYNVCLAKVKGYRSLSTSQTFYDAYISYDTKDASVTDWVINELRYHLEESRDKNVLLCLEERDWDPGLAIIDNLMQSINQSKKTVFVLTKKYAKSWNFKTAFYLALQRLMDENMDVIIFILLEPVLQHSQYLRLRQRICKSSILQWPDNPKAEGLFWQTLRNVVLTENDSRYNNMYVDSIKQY

[1] = 0.1 mg/kg oral once daily 8 weeks
[2] = 0.3 mg/kg oral once daily 8 weeks
[3] = 1 mg/kg oral once daily 8 weeks
[4] = 3 mg/kg oral once daily 8 weeks
[5] = 10 mg/kg oral once daily 8 weeks

Sequence of TLR7 (P58681 27-1050): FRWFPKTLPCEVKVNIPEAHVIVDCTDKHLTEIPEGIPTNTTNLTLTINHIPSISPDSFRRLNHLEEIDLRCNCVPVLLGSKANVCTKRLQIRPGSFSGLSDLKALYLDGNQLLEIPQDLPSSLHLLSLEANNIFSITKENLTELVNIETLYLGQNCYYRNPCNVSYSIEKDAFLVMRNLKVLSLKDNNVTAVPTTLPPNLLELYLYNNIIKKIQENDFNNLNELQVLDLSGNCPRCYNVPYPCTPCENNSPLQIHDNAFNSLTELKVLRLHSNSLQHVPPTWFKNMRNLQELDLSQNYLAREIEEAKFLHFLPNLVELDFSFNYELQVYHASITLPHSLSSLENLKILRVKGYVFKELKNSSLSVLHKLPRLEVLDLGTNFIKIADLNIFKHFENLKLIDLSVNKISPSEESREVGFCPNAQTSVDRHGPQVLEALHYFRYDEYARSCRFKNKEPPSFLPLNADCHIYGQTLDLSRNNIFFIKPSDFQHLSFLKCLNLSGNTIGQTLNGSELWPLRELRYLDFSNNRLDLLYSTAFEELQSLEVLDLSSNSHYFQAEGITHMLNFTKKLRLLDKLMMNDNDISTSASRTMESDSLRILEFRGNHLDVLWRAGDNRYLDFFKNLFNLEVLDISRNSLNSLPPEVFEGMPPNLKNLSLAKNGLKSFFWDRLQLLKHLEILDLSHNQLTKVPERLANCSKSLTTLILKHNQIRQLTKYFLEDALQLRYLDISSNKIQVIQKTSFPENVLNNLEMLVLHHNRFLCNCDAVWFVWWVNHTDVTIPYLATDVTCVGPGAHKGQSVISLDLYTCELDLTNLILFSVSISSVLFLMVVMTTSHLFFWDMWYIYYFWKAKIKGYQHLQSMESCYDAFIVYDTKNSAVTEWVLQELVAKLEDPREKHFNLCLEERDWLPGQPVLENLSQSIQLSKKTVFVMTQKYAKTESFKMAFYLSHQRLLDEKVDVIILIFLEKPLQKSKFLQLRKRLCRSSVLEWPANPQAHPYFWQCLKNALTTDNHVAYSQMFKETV

% inhibition of IFN-alpha (TLR7; 0.003 mg/kg oral): 36% | % inhibition of IL6 (TLR7; 0.003 mg/kg oral): 25% | % inhibition of IFN-alpha (TLR7; 0.006 mg/kg oral): 57% | % inhibition of IL6 (TLR7; 0.006 mg/kg oral): 41% | % inhibition of IFN-alpha (TLR7; 0.03 mg/kg oral): 67% | % inhibition of IL6 (TLR7; 0.03 mg/kg oral): 56% | % inhibition of IFN-alpha (TLR7; 0.15 mg/kg oral): 96% | % inhibition of IL6 (TLR7; 0.15 mg/kg oral): 78% | % inhibition of IFN-alpha (TLR7; 0.3 mg/kg oral): 98% | % inhibition of IL6 (TLR7; 0.3 mg/kg oral): 82% | IC50 (human TLR9): 1460 nM | IC50 (human TLR8): 0.39 nM
Structure (SMILES): Cc1c(-c2[nH]c3ccc(C4CCC(N5CC6(C5)CS(=O)(=O)C6)CC4)nc3c2C(C)C)cn2ncnc2c1C (centres unmarked) [Example 438, 6-((1r,4r)-(4-(2-(7,8-dimethyl-[1,2,4]triazolo[1,5-a]pyridin-6-yl)-3-isopropyl-1H-pyrrolo[3,2-b]pyridin-5-yl)cyclohexyl)-2-thia-6-azaspiro[3.3]heptane 2,2-dioxide]
IL-10, percent reduction in disease severity (MRL/lpr mice; [1]): 0% | IL-12p40, percent reduction in disease severity (MRL/lpr mice; [1]): 16% | Anti-SmRNP Ab titer, percent reduction in disease severity (MRL/lpr mice; [1]): 23% | Anti-dsDNA Ab titer, percent reduction in disease severity (MRL/lpr mice; [1]): 0% | Proteinuria, percent reduction in disease severity (MRL/lpr mice; [1]): 31% | Urinary NGAL, percent reduction in disease severity (MRL/lpr mice; [1]): 34% | Urinary TIMP1, percent reduction in disease severity (MRL/lpr mice; [1]): 0% | IL-10, percent reduction in disease severity (MRL/lpr mice; [2]): 18% | IL-12p40, percent reduction in disease severity (MRL/lpr mice; [2]): 33% | Anti-SmRNP Ab titer, percent reduction in disease severity (MRL/lpr mice; [2]): 44% | Anti-dsDNA Ab titer, percent reduction in disease severity (MRL/lpr mice; [2]): 28% | Proteinuria, percent reduction in disease severity (MRL/lpr mice; [2]): 80% | Urinary NGAL, percent reduction in disease severity (MRL/lpr mice; [2]): 58% | Urinary TIMP1, percent reduction in disease severity (MRL/lpr mice; [2]): 42% | IL-10, percent reduction in disease severity (MRL/lpr mice; [3]): 19% | IL-12p40, percent reduction in disease severity (MRL/lpr mice; [3]): 26% | Anti-SmRNP Ab titer, percent reduction in disease severity (MRL/lpr mice; [3]): 49% | Anti-dsDNA Ab titer, percent reduction in disease severity (MRL/lpr mice; [3]): 39% | Proteinuria, percent reduction in disease severity (MRL/lpr mice; [3]): 73% | Urinary NGAL, percent reduction in disease severity (MRL/lpr mice; [3]): 63% | Urinary TIMP1, percent reduction in disease severity (MRL/lpr mice; [3]): 54% | IL-10, percent reduction in disease severity (MRL/lpr mice; [4]): 21% | IL-12p40, percent reduction in disease severity (MRL/lpr mice; [4]): 28% | Anti-SmRNP Ab titer, percent reduction in disease severity (MRL/lpr mice; [4]): 43% | Anti-dsDNA Ab titer, percent reduction in disease severity (MRL/lpr mice; [4]): 44% | Proteinuria, percent reduction in disease severity (MRL/lpr mice; [4]): 82% | Urinary NGAL, percent reduction in disease severity (MRL/lpr mice; [4]): 67% | Urinary TIMP1, percent reduction in disease severity (MRL/lpr mice; [4]): 56% | IL-10, percent reduction in disease severity (MRL/lpr mice; [5]): 22% | IL-12p40, percent reduction in disease severity (MRL/lpr mice; [5]): 41% | Anti-SmRNP Ab titer, percent reduction in disease severity (MRL/lpr mice; [5]): 51% | Anti-dsDNA Ab titer, percent reduction in disease severity (MRL/lpr mice; [5]): 37% | Proteinuria, percent reduction in disease severity (MRL/lpr mice; [5]): 84% | Urinary NGAL, percent reduction in disease severity (MRL/lpr mice; [5]): 67% | Urinary TIMP1, percent reduction in disease severity (MRL/lpr mice; [5]): 79%
